Source: PMC9501810, “Bitter Peptides YFYPEL, [sequence], and [sequence], Released during Gastric Digestion of Casein, Stimulate Mechanisms of Gastric Acid Secretion via Bitter Taste Receptors TAS2R16 and TAS2R38” (Journal of Agricultural and Food Chemistry, 2022)
Several values for one entry are separate records, joined by “and”; a condition that tells them apart may be missing. Identical values can stand only once.

Assays:
[1] = tested on: TAS2R50; assay: RT-qPCR gene expression of TAS2R50 in HGT-1 cells; type: cell-based, human; conditions: VAPFPEVF 17.5 µM, YFYPEL 0.03 µM, YQEPVLGPVRGPFPIIV 0.4 µM, normalized to PPIA and GAPDH and untreated cells, mean, n = 3–5
Method: (§1) For mRNA expression analysis, 800,000 cells were seeded in a T25 cell culture flask (25 cm^2) 1 day before the experiment. After incubation with 17.5 μM […], 0.03 μM YFYPEL, or 0.4 μM […] for 15, 30, 60, and 120 min, RNA was isolated using the peqGOLD RNA Kit (VWR Peqlab, USA) following the manufacturer’s protocol. Determination of RNA concentration (A260/A280 between 2.03 and 2.09) was performed on a NanoDrop One^c (Thermo Fisher Scientific Inc., USA). RNA integrity number (RIN 9.9–10.0, version 2.6, assay class Eukaryote Total RNA Nano) was analyzed using a 2100 Bioanalyzer (Agilent Technologies, USA). Removal of gDNA and synthesis of cDNA were performed using the iScript gDNA Clear cDNA Synthesis Kit (BioRad, Feldkirchen, Germany) following the manufacturer’s protocol. Real-time-qPCR (RT-qPCR) was performed with 50 ng cDNA amplified with SsoAdvanced Universal SYBR Green Supermix (Bio-Rad Laboratories, Inc., USA). The sequences of the forward and reverse primers of the 25 TAS2Rs were taken from Liszt et al.([13]) (Supporting Information Table-SI 3). Verified primers for the TAS1Rs (TAS1R1: qHsaCID0013443; TAS1R2: qHsaCID0016106; TAS1R3: qHsaCED0002321) and for MAPK1 (qHsaCEP0050000) were obtained from Bio-Rad Laboratories. PPIA[37] and GAPDH[38] were used as reference genes. The effects of the peptides on gene expression were analyzed in comparison to untreated control cells.

[2] = tested on: TAS2R8; assay: RT-qPCR gene expression of TAS2R8 in HGT-1 cells; type: cell-based, human; conditions: VAPFPEVF 17.5 µM, YFYPEL 0.03 µM, YQEPVLGPVRGPFPIIV 0.4 µM, normalized to PPIA and GAPDH and untreated cells, mean, n = 3–5
Method: as §1

[3] = tested on: pepsin; assay: In vitro gastric digestion of casein with targeted UHPLC-MS/MS-MRM quantitation of peptides; type: in vitro ADME, porcine; conditions: 37 °C, n = 4; for degradation of the peptide during further in vitro gastric digestion: up to 6 h
Method: The in vitro digestion was based on the Nature protocol established by Brodkorb et al.([30]) For this, simulated salivary fluid (SSF, containing 15.1 mM KCl, 3.7 mM KH2PO4, 13.6 mM NaHCO3, 0.15 mM MgCl2(H2O)6, 0.06 mM (NH4)2CO3, 1.1 mM HCl, and 1.5 mM CaCl2(H2O)2) and simulated gastric fluid (SGF, containing 6.9 mM KCl, 0.9 mM KH2PO4, 25.0 mM NaHCO3, 47.2 mM NaCl, 0.12 mM MgCl2(H2O)6, 0.5 mM (NH4)2CO3, 15.6 mM HCl, and 0.15 mM CaCl2(H2O)2) were prepared. A total amount of 100 mg casein was suspended in 3 mL of SSF and incubated for 5 min at 37 °C in the tube rotator. After taking a sample (500 μL, t = 0 h), 2 mL of SGF was added and the pH was adjusted to 3 with 100 μL of HCl (1 M). After addition of 125 μL of pepsin solution (80,000 U/mL in 10 mM HCl), 275 μL of H2O was added to fill up to 5 mL. This was followed by further incubation at 37 °C in a tube rotator for 6 h. 500 μL of samples was taken at 0.25, 0.5, 0.75, 1, 2, 3, 4, 5, and 6 h, respectively. The samples were frozen in liquid nitrogen and stored at −80 °C until further analysis. For MS experiments, all samples were diluted 1:1 with 10% MeCN.
All targeted proteomics LC–MS/MS measurements were performed using a Sciex ExionLC AC (Sciex, Darmstadt, Germany) coupled to a 6500+ QTrap LC–MS/MS system (Sciex, Darmstadt, Germany) operating in the positive electrospray ionization mode. Data acquisition and instrumentation control were performed with AnalystTF software (v 1.7.1; Sciex, Darmstadt, Germany). Separation was performed using a 100 × 2.1 mm, 1.7 μm, Kinetex C18 column (Phenomenex, Aschaffenburg, Germany) with a guard column of the same type with 0.1% aqueous formic acid and acetonitrile containing 0.1% formic acid at a flow rate of 0.25 mL/min. The gradient was based on the following scheme: 0 min, 15% B; 7 min, 40% B; 7.5 min, 98% B; 10.5 min, 98% B; 10.8 min, 15% B; and 15 min, 15% B. The column oven temperature was set at 40 °C, and the injection volume was 1 μL per sample. For MS/MS measurements, the same parameters were used for all samples (ion spray voltage […], source temperature 450 °C, nebulizing gas 60 psi, and heating gas 30 psi). Nitrogen was set to 35 psi and served as a curtain gas to effectively dissolve the ions. To optimize the parameters DP, CE, and collision cell exit potential for each peptide and transition (Supporting Information Table-SI 2), standard solutions of the five synthesized peptides were injected directly into the MS ion source. Ionization parameters were optimized in positive ESI mode using AnalystTF software (v 1.7.1; Sciex, Darmstadt, Germany). For the preparation of the calibration curves, five peptides were dissolved individually in D2O (600 μL) and the concentration of the stock solutions was determined by qNMR.[35] For each peptide, seven calibration solutions (0.5, 1, 5, 10, 50, 100, and 200 μM) were diluted in 5% MeCN from these stock solutions. The data were analyzed using MultiQuant software (v 3.0.3; Sciex, Darmstadt, Germany).

[4] = tested on: TAS2R7; assay: RT-qPCR gene expression of TAS2R7 in HGT-1 cells; type: cell-based, human; conditions: VAPFPEVF 17.5 µM, YFYPEL 0.03 µM, YQEPVLGPVRGPFPIIV 0.4 µM, normalized to PPIA and GAPDH and untreated cells, mean, n = 3–5
Method: as §1

[5] = tested on: TAS2R10; assay: RT-qPCR gene expression of TAS2R10 in HGT-1 cells; type: cell-based, human; conditions: VAPFPEVF 17.5 µM, YFYPEL 0.03 µM, YQEPVLGPVRGPFPIIV 0.4 µM, normalized to PPIA and GAPDH and untreated cells, mean, n = 3–5
Method: as §1

[6] = tested on: TAS2R43; assay: RT-qPCR gene expression of TAS2R43 in HGT-1 cells; type: cell-based, human; conditions: VAPFPEVF 17.5 µM, YFYPEL 0.03 µM, YQEPVLGPVRGPFPIIV 0.4 µM, normalized to PPIA and GAPDH and untreated cells, mean, n = 3–5
Method: as §1

[7] = tested on: TAS2R42; assay: RT-qPCR gene expression of TAS2R42 in HGT-1 cells; type: cell-based, human; conditions: VAPFPEVF 17.5 µM, YFYPEL 0.03 µM, YQEPVLGPVRGPFPIIV 0.4 µM, normalized to PPIA and GAPDH and untreated cells, mean, n = 3–5
Method: as §1

[8] = tested on: TAS2R20; assay: RT-qPCR gene expression of TAS2R20 in HGT-1 cells; type: cell-based, human; conditions: VAPFPEVF 17.5 µM, YFYPEL 0.03 µM, YQEPVLGPVRGPFPIIV 0.4 µM, normalized to PPIA and GAPDH and untreated cells, mean, n = 3–5
Method: as §1

| Substance | change in gene expression of TAS2R50 ([1]; incubation 15 min) [fold change] | change in gene expression of TAS2R50 ([1]; incubation 30 min) [fold change] | change in gene expression of TAS2R50 ([1]; incubation 60 min) [fold change] | change in gene expression of TAS2R50 ([1]; incubation 120 min) [fold change] | change in gene expression of TAS2R8 ([2]; incubation 15 min) [fold change] | change in gene expression of TAS2R8 ([2]; incubation 30 min) [fold change] | change in gene expression of TAS2R8 ([2]; incubation 60 min) [fold change] | change in gene expression of TAS2R8 ([2]; incubation 120 min) [fold change] | degradation of the peptide during further in vitro gastric digestion ([3]; SGF pH 3 with pepsin) | change in gene expression of TAS2R7 ([4]; incubation 15 min) [fold change] | change in gene expression of TAS2R7 ([4]; incubation 30 min) [fold change] | change in gene expression of TAS2R7 ([4]; incubation 60 min) | change in gene expression of TAS2R7 ([4]; incubation 120 min) [fold change] | change in gene expression of TAS2R10 ([5]; incubation 15 min) | change in gene expression of TAS2R10 ([5]; incubation 30 min) | change in gene expression of TAS2R10 ([5]; incubation 60 min) [fold change] | change in gene expression of TAS2R10 ([5]; incubation 120 min) [fold change] | change in gene expression of TAS2R43 ([6]; incubation 15 min) [fold change] | change in gene expression of TAS2R43 ([6]; incubation 30 min) [fold change] | change in gene expression of TAS2R43 ([6]; incubation 60 min) [fold change] | also measured |
| --- | --- | --- | --- | --- | --- | --- | --- | --- | --- | --- | --- | --- | --- | --- | --- | --- | --- | --- | --- | --- | --- |
| YQEPVLGPVRGPFPIIV [bitter casein peptide βA1/A2-CN193–209] | 0.67 | 1.66 | 1.21 | 1.07 | 1.39 | 2.45 | 1.87 | 1.93 | continuous cleavage over the 6 h | 0.49 | 0.74 | 0.70 fold change | 1.82 | 0.52 fold change and 0.52 ± 0.06 fold change | 0.78 fold change | 0.90 | 1.04 | 0.69 | 1.44 | 1.15 | final concentration after 6 h of in vitro digestion ([3]; 100 mg casein, SGF pH 3 with pepsin, 6 h, mean): 22.5 µM; highest concentration released during in vitro digestion ([3]; 100 mg casein, SSF then SGF pH 3 with pepsin, 0–6 h, mean): up to 300.8 μM; change in gene expression of TAS2R43 ([6]; incubation 120 min): 0.88 fold change; change in gene expression of TAS2R42 ([7]; incubation 15 min): 0.62 fold change; change in gene expression of TAS2R42 ([7]; incubation 30 min): 1.38 fold change; change in gene expression of TAS2R42 ([7]; incubation 60 min): 1.18 fold change; change in gene expression of TAS2R42 ([7]; incubation 120 min): 0.94 fold change; change in gene expression of TAS2R20 ([8]; incubation 15 min): 0.95 fold change; change in gene expression of TAS2R20 ([8]; incubation 30 min): 1.42 fold change; change in gene expression of TAS2R20 ([8]; incubation 60 min): 1.38 fold change; change in gene expression of TAS2R20 ([8]; incubation 120 min): 1.31 fold change |
| YFYPEL [bitter casein peptide αS1-CN144–149] | 1.50 | 0.70 | 0.92 | 0.91 | 1.62 | 1.90 | 1.87 | 1.69 | no noticeable degradation | 1.23 | 2.50 | 6.71 fold change and 6.71 ± 1.56 fold change | 1.18 | 0.64 fold change | 0.41 fold change and 0.41 ± 0.05 fold change | 0.72 | 0.90 | 1.49 | 0.64 | 0.91 | change in gene expression of TAS2R43 ([6]; incubation 120 min): 1.02 fold change; change in gene expression of TAS2R42 ([7]; incubation 15 min): 1.17 fold change; change in gene expression of TAS2R42 ([7]; incubation 30 min): 0.55 fold change; change in gene expression of TAS2R42 ([7]; incubation 60 min): 0.69 fold change; change in gene expression of TAS2R42 ([7]; incubation 120 min): 0.93 fold change; change in gene expression of TAS2R20 ([8]; incubation 15 min): 1.37 fold change; change in gene expression of TAS2R20 ([8]; incubation 30 min): 0.93 fold change; change in gene expression of TAS2R20 ([8]; incubation 60 min): 0.94 fold change; change in gene expression of TAS2R20 ([8]; incubation 120 min): 1.16 fold change |
| VAPFPEVF [bitter casein peptide αS1-CN25–32] | 0.56 | 1.39 | 0.83 | 1.56 | 1.24 | 2.25 | 1.34 | 2.04 | no noticeable degradation | 1.20 | 0.71 | 1.05 fold change | 0.62 | 0.34 fold change and 0.34 ± 0.05 fold change | 0.76 fold change | 0.91 | 1.15 | 0.57 | 1.14 | 0.72 | change in gene expression of TAS2R43 ([6]; incubation 120 min): 1.49 fold change; change in gene expression of TAS2R42 ([7]; incubation 15 min): 0.52 fold change; change in gene expression of TAS2R42 ([7]; incubation 30 min): 0.88 fold change; change in gene expression of TAS2R42 ([7]; incubation 60 min): 0.71 fold change; change in gene expression of TAS2R42 ([7]; incubation 120 min): 1.20 fold change; change in gene expression of TAS2R20 ([8]; incubation 15 min): 0.70 fold change; change in gene expression of TAS2R20 ([8]; incubation 30 min): 1.33 fold change; change in gene expression of TAS2R20 ([8]; incubation 60 min): 0.87 fold change; change in gene expression of TAS2R20 ([8]; incubation 120 min): 1.78 fold change |
